Reference: ChEMBL document CHEMBL1147060
Calls of active or inactive are those of the source. No cut-off for these calls is given here.

Key:
BMMC [1] = assay: Inhibition of antigen-induced histamine release in Tec-deficient BMMC at 1 uM after 30 mins; format: functional, cell-based; details: Mus musculus
U-937 [2] = assay: Decrease in basal TNFalpha release in human U937 cells after 1 hr by ELISA; format: functional, cell-based
Mast cell = assay: Inhibition of antigen-induced IL6 secretion in mouse mast cells at 1 uM after 24 hrs by ELISA; format: functional, cell-based
U-937 [3] = assay: Inhibition of basal TNFalpha release in human U937 cells at 2 uM after 1 hr by ELISA; format: functional, cell-based
U-937 [4] = assay: Inhibition of LPS-induced TNFalpha release in human U937 cells at 2 uM after 1 hr by ELISA; format: functional, cell-based
BMMC [5] = assay: Inhibition of antigen-induced histamine release in wild-type BMMCs at 1 uM after 30 mins; format: functional, cell-based; details: Mus musculus
U-937 [6] = assay: Decrease in LPS-induced TNFalpha release in human U937 cells after 1 hr by ELISA; format: functional, cell-based
Homo sapiens = organism: Homo sapiens; assay: Inhibition of antigen-induced histamine release in human basophils at 1 uM after 30 mins; format: functional

For `Cc1nc(Nc2ncc(C(=O)Nc3c(C)cccc3Cl)s2)cc(N2CCN(CCO)CC2)n1`, the Activity (BMMC [1]) was “Active”, the Activity (U-937 [2]) was “Active” and the Activity (Mast cell) was “Active”. For the same compound, the Activity (U-937 [3]) was “inactive”, the Activity (U-937 [4]) was “inactive” and the Activity (BMMC [5]) was “Active”. The Activity (U-937 [6]) was “Active” and the Activity (Homo sapiens) was “Active”.
